# Data published in article PMC4945070 (PLoS Neglected Tropical Diseases, 2016).
# Where a name gives a salt, the structure may show the parent alone.
# How the values were obtained:
# Test in all cases: cell-based
# Parameters in all cases: Emax: dose or concentration left out as unconfirmed
# [1] = target: H. contortus L-AChR1.3 (UNC-63, UNC-38, ACR-8, UNC-29.3) (Haemonchus contortus, UniProt A9XX24+D6MYF1+D6MYF3+D6MYF4); conditions: for Max Inhibition ± S.E.: inhibition of 100 μM ACh current
# Procedure: (§1) The H. contortus cDNAs encoding AChR subunits and ancillary proteins were available as expression clones in the pTB207 vector and C. elegans expression clones were a gift from T. Boulin.. cRNA synthesis of each construct required NheI-linearized templates and was performed with the mMessage mMachine T7 Kit (Ambion) according to the manufacturer’s instructions. cRNAs were precipitated with lithium chloride and redissolved in RNAse-free water and stored at -80°C. cRNA concentration was determined using a Nanodrop spectrophotometer (Thermo Scientific) and cRNA purity and integrity was assessed by electrophoresis through a 1% gel stained with GreenGlo nucleic acid dye (Denville Scientific Inc.).
# (§2) Oocytes were collected from mature Xenopus females according to standard procedures and incubated at 19°C in a ND96 solution (NaCl 96 mM, KCl 2 mM, CaCl2 1.8 mM, MgCl2 1 mM, and HEPES 5 mM, pH 7.3 supplemented with sodium pyruvate 2.5 mM). Defolliculated oocytes were injected into the animal pole with approximately 36 nL of a cRNA mix containing 50 ng/μL of each cRNA in RNAse-free water using the Nanoject system (Drummond Scientific, Broomall, PA). Negative controls consisted of oocytes injected with RNAse-free water. Oocytes were then stored at 19°C in ND96 for 5 days to allow receptor expression. In order to prevent activation of endogenous calcium-activated chloride channels, the oocytes were incubated in ND96 supplemented with 100 μM of the calcium chelator BAPTA-AM, 4h prior to recording.
# (§3) Two-electrode voltage-clamp experiments were carried out using a perfusion system connected to a flat RC-1Z chamber (Harvard Apparatus). Glass electrodes were filled with 3M KCl and checked for resistance between 1 and 3 MΩ. The oocyte bath was connected to the ground through a 3 M KCl agar bridge. Agonist and antagonists were dissolved or diluted in recording solution (100 mM NaCl, 2.5 mM KCl, 1 mM CaCl2, 5 mM HEPES, pH 7.3). All measurements were performed using a Geneclamp 500B amplifier and Digidata 1322M (Axon Instruments), oocytes were voltage-clamped at -60 mV. Drug solutions were applied to oocytes by gravity flow using perfusion syringes directly connected to the chamber. Data were collected and analyzed using Clampex 9.2 and Clampfit 9.2 (Axon Instruments, Sunnyvale, CA, USA). Traces were filtered at 30 Hz and analyzed using GraphPad Prism 5.0 software (GraphPad Software, San Diego, CA, USA). Final results are presented as means ± SE.
# [2] = target: H. contortus L-AChR1.1 (UNC-63, UNC-38, ACR-8, UNC-29.1) (Haemonchus contortus, UniProt A9XX24+D6MYE9+D6MYF3+D6MYF4); conditions: for Max. Inhibition ± S.E.: inhibition of 100 μM ACh current
# Procedure: as §1, §2, §3
# [3] = target: H. contortus L-AChR1.4 (UNC-63, UNC-38, ACR-8, UNC-29.4) (Haemonchus contortus, UniProt A9XX24+D6MYF2+D6MYF3+D6MYF4); assay type: cell-based
# Procedure: as §1, §2, §3
# [4] = L-AChR1.3, dTC 100 μM, DHβE 10 μM, MECA 30 μM
# [5] = read-out: blocking of ACh elicited currents
# [6] = L-AChR1.1, dTC 100 μM, DHβE 10 μM, MECA 30 μM
smiles,measurement,setting,value
"CNC1(C)C2CCC(C2)C1(C)C (centres unmarked) [Mecamylamine, mecamylamine hydrochloride]",MECA inhibition (summary),[1]; L-AChR1.3,Partial Inhibition
same,Max Inhibition ± S.E.,[1]; [4],56.87 ± 3.18
same,inhibition at 30 µM,[1]; [5],56.9 ± 3.2%
same,MECA inhibition (summary),[2]; L-AChR1.1,Full Inhibition
same,Max. Inhibition ± S.E.,[2]; [6],99.91 ± 0.09
same,inhibition at 30 µM,[2]; [5],99.9 ± 0.1%
same,MECA inhibition (summary),[3]; L-AChR1.4,Full Inhibition
same,inhibition at 30 µM,[3]; [5],96.4 ± 1.9%
"COc1cc2c3cc1Oc1cc(ccc1O)C[C@@H]1c4c(cc(OC)c(O)c4Oc4ccc(cc4)C[C@@H]3N(C)CC2)CC[N+]1(C)C [D-turbocurarine, (+)-tubocurarine chloride hydrate]",blocking of ACh elicited currents,"[1]; L-AChR1.3, dTC 100 μM, DHβE 10 μM, MECA 30 μM, 100 μM ACh",efficiently blocked the ACh responses
same,Max Inhibition ± S.E.,[1]; [4],99.98 ± 0.02
same,blocking of ACh elicited currents,"[2]; L-AChR1.1, dTC 100 μM, DHβE 10 μM, MECA 30 μM, 100 μM ACh",efficiently blocked the ACh responses
same,Max. Inhibition ± S.E.,[2]; [6],99.63 ± 0.35
same,blocking of ACh elicited currents,"[3]; L-AChR1.4, dTC 100 μM, DHβE 10 μM, MECA 30 μM, 100 μM ACh",efficiently blocked the ACh responses
same,Max Inhibition ± S.E.,"[3]; L-AChR1.4, inhibition of 100 μM ACh current, dTC 100 μM, DHβE 10 μM, MECA 30 μM",97.52 ± 1.09
"CN1CCCN=C1/C=C/c1cccs1 [Pyrantel, pyrantel citrate]",Emax,[1]; read-out: Max. Current ± S.E.,13.8 ± 1.26%
same,Emax,[2]; read-out: Max. Current ± S.E.,11.8 ± 0.99%
same,Emax,[3]; read-out: Max. Current ± S.E.,7.32 ± 0.98%
"C[N+]1(C)CCN(c2ccccc2)CC1 [DMPP, 1,1-dimethyl-4-phenylpiperazinium iodide]",Emax at 100 µM,"[1]; L-AChR1.3, agonists at 100 μM, normalized to 100 μM acetylcholine, read-out: Max. Current ± S.E.",36.9 ± 3.93%
same,Emax at 100 µM,"[2]; L-AChR1.1, agonists at 100 μM, normalized to 100 μM acetylcholine, read-out: Max. Current ± S.E.",42 ± 1.41%
same,Emax at 100 µM,"[3]; L-AChR1.4, agonists at 100 μM, normalized to 100 μM acetylcholine, read-out: Max. Current ± S.E.",31.6 ± 1%
